pKi: −log10 of the molar value.
molecular target: T1, Dimer of Gag-Pol polyprotein [489-587] (Human immunodeficiency virus 1, UniProt P12497); assay: Enzyme Inhibition Assay; conditions: pH 5; 30 °C
T1 construct: 489-587
Experimental: The effects of the inhibitors on the activity of HIV-1 proteinase was determined by a fluorometric assay with an internally quenched fluorescent peptide substrate. Measurements were performed in 96-well plates with a Fluoroskan plate reader. Excitation and emission wavelengths were 355 and 500 nm, respectively.Data were analyzed by nonlinear regression by using SIMFIT, and an equation for tightly binding inhibitors.

| Structure (SMILES) | pKi |
| --- | --- |
| CSc1ccccc1-c1ccccc1CN1C[C@H](O)[C@@H](O)CN(Cc2ccccc2-c2ccccc2SC)S1(=O)=O [(4S,5S)-4,5-dihydroxy-2,7-bis({2-[2-(methylsulfanyl)phenyl]phenyl}methyl)-1,2,7-thiadiazepane-1,1-dione] | 5.96 |
| O=S1(=O)N(Cc2ccccc2-c2cc3ccccc3o2)C[C@H](O)[C@@H](O)CN1Cc1ccccc1-c1cc2ccccc2o1 [(4S,5S)-2,7-bis({[2-(1-benzofuran-2-yl)phenyl]methyl})-4,5-dihydroxy-1,2,7-thiadiazepane-1,1-dione] | 6.28 |
| CCCCc1ccc(-c2ccccc2CN2C[C@H](O)[C@@H](O)CN(Cc3ccccc3-c3ccc(CCCC)cc3)S2(=O)=O)cc1 [(4S,5S)-2,7-bis({[2-(4-butylphenyl)phenyl]methyl})-4,5-dihydroxy-1,2,7-thiadiazepane-1,1-dione] | 5.72 |
| CC(=O)c1ccc(-c2ccccc2CN2C[C@H](O)[C@@H](O)CN(Cc3ccccc3-c3ccc(C(C)=O)cc3)S2(=O)=O)cc1 [(4S,5S)-2,7-bis({[2-(4-acetylphenyl)phenyl]methyl})-4,5-dihydroxy-1,2,7-thiadiazepane-1,1-dione] | 5.28 |
| O=S1(=O)N(Cc2ccccc2-c2ccc(F)cc2)C[C@H](O)[C@@H](O)CN1Cc1ccccc1-c1ccc(F)cc1 [(4S,5S)-2,7-bis({[2-(4-fluorophenyl)phenyl]methyl})-4,5-dihydroxy-1,2,7-thiadiazepane-1,1-dione] | 5.28 |
| O=S1(=O)N(Cc2ccccc2Cc2ccccc2)C[C@H](O)[C@@H](O)CN1Cc1ccccc1Cc1ccccc1 [(4S,5S)-2,7-bis[(2-benzylphenyl)methyl]-4,5-dihydroxy-1,2,7-thiadiazepane-1,1-dione] | 5.60 |
| O=S1(=O)N(Cc2ccccc2-c2ccccc2)C[C@H](O)[C@@H](O)CN1Cc1ccccc1-c1ccccc1 [(4S,5S)-4,5-dihydroxy-2,7-bis[(2-phenylphenyl)methyl]-1,2,7-thiadiazepane-1,1-dione] | 5.60 |
| COc1ccccc1-c1ccccc1CN1C[C@H](O)[C@@H](O)CN(Cc2ccccc2-c2ccccc2OC)S1(=O)=O [(4S,5S)-4,5-dihydroxy-2,7-bis({[2-(2-methoxyphenyl)phenyl]methyl})-1,2,7-thiadiazepane-1,1-dione] | 5.29 |
| O=[N+]([O-])c1cccc(-c2ccccc2CN2C[C@H](O)[C@@H](O)CN(Cc3ccccc3-c3cccc([N+](=O)[O-])c3)S2(=O)=O)c1 [(4S,5S)-4,5-dihydroxy-2,7-bis({[2-(3-nitrophenyl)phenyl]methyl})-1,2,7-thiadiazepane-1,1-dione] | 5.13 |
| O=S1(=O)N(Cc2ccccc2CCc2ccccc2)C[C@H](O)[C@@H](O)CN1Cc1ccccc1CCc1ccccc1 [(4S,5S)-4,5-dihydroxy-2,7-bis({[2-(2-phenylethyl)phenyl]methyl})-1,2,7-thiadiazepane-1,1-dione] | 5.52 |
| COc1ccc(-c2ccccc2CN2C[C@H](O)[C@@H](O)CN(Cc3ccccc3-c3ccc(OC)cc3)S2(=O)=O)cc1 [(4S,5S)-4,5-dihydroxy-2,7-bis({[2-(4-methoxyphenyl)phenyl]methyl})-1,2,7-thiadiazepane-1,1-dione] | 5.01 |
| CC(C)c1cccc(-c2ccccc2CN2C[C@H](O)[C@@H](O)CN(Cc3ccccc3-c3cccc(C(C)C)c3)S2(=O)=O)c1 [(4S,5S)-4,5-dihydroxy-2,7-bis({2-[3-(propan-2-yl)phenyl]phenyl}methyl)-1,2,7-thiadiazepane-1,1-dione] | 5.49 |
| O=S1(=O)N(Cc2ccccc2-c2cccc(C(F)(F)F)c2)C[C@H](O)[C@@H](O)CN1Cc1ccccc1-c1cccc(C(F)(F)F)c1 [(4S,5S)-4,5-dihydroxy-2,7-bis({2-[3-(trifluoromethyl)phenyl]phenyl}methyl)-1,2,7-thiadiazepane-1,1-dione] | 5.62 |
| CCS(=O)(=O)c1ccc(-c2ccccc2CN2C[C@H](O)[C@@H](O)CN(Cc3ccccc3-c3ccc(S(=O)(=O)CC)cc3)S2(=O)=O)cc1 [(4S,5S)-2,7-bis({2-[4-(ethanesulfonyl)phenyl]phenyl}methyl)-4,5-dihydroxy-1,2,7-thiadiazepane-1,1-dione] | 5.28 |
| O=S1(=O)N(Cc2ccccc2-c2ccsc2)C[C@H](O)[C@@H](O)CN1Cc1ccccc1-c1ccsc1 [(4S,5S)-4,5-dihydroxy-2,7-bis({[2-(thiophen-3-yl)phenyl]methyl})-1,2,7-thiadiazepane-1,1-dione] | 5.57 |
| O=S1(=O)N(Cc2ccccc2)C[C@H](O)[C@@H](O)CN1Cc1ccccc1 [(4S,5S)-2,7-dibenzyl-4,5-dihydroxy-1,2,7-thiadiazepane-1,1-dione] | < 4.70 |
| Cc1cccc(-c2ccccc2CN2C[C@H](O)[C@@H](O)CN(Cc3ccccc3-c3cccc(C)c3)S2(=O)=O)c1 [(4S,5S)-4,5-dihydroxy-2,7-bis({[2-(3-methylphenyl)phenyl]methyl})-1,2,7-thiadiazepane-1,1-dione] | 5.57 |
| O=S1(=O)N(Cc2ccccc2/C=C/c2ccccc2)C[C@H](O)[C@@H](O)CN1Cc1ccccc1/C=C/c1ccccc1 [(4S,5S)-4,5-dihydroxy-2,7-bis({2-[(E)-2-phenylethenyl]phenyl}methyl)-1,2,7-thiadiazepane-1,1-dione] | 5.70 |
| COc1ccc(-c2ccccc2CN2C[C@H](O)[C@@H](O)CN(Cc3ccccc3-c3ccc(OC)c(OC)c3)S2(=O)=O)cc1OC [(4S,5S)-2,7-bis({[2-(3,4-dimethoxyphenyl)phenyl]methyl})-4,5-dihydroxy-1,2,7-thiadiazepane-1,1-dione] | 5.03 |
| Cc1ccc(-c2ccccc2CN2C[C@H](O)[C@@H](O)CN(Cc3ccccc3-c3ccc(C)cc3)S2(=O)=O)cc1 [(4S,5S)-4,5-dihydroxy-2,7-bis({[2-(4-methylphenyl)phenyl]methyl})-1,2,7-thiadiazepane-1,1-dione] | 5.82 |

From BindingDB's records for doi:10.1016/j.bmc.2004.10.042 (Uppsala University, 2005)
